According to patent US6737383B1, “Herbicidal oxadiazolidines” (priority 1999, dated 2004):

Key:
sugar beet = assay: Test B pre/postemergence sugar beet; format: in vivo, Beta vulgaris
In short: (§1)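 Response is a visual 0-to-10 score relative to untreated plants, where 0 means no effect and 10 means complete control, taken twelve to sixteen days after application. Treatments went onto soil at planting and onto foliage of 1- to 4-leaf plants, using a surfactant-containing non-phytotoxic solvent.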

wheat = assay: Test B pre/postemergence wheat; format: in vivo, Triticum aestivum
In short: as §1

corn = assay: Test B pre/postemergence corn; format: in vivo, Zea mays
In short: as §1

morningglory = assay: Test B pre/postemergence morningglory; format: in vivo, Ipomoea hederacea
In short: as §1

pigweed = assay: Test B pre/postemergence pigweed; format: in vivo, Amaranthus retroflexus
In short: as §1

rape = assay: Test B pre/postemergence rape; format: in vivo, Brassica napus
In short: as §1

purple nutsedge = assay: Test B pre/postemergence purple nutsedge; format: in vivo, Cyperus rotundus
In short: as §1

soybean = assay: Test B pre/postemergence soybean; format: in vivo, Glycine max
In short: as §1

duck salad = assay: Test B flood test duck salad; format: in vivo, Heteranthera limosa
In short: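 Each value is a visual injury score relative to controls, with 10 meaning complete control and 0 no effect. Evaluation took place twelve to sixteen days after the 2-leaf-stage plants were treated and kept in the greenhouse.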

surinam grass = assay: Test B pre/postemergence surinam grass; format: in vivo, Brachiaria decumbens
In short: as §1

velvetleaf = assay: Test B pre/postemergence velvetleaf; format: in vivo, Abutilon theophrasti
In short: as §1

crabgrass = assay: Test B pre/postemergence crabgrass; format: in vivo, Digitaria sanguinalis
In short: as §1

cocklebur = assay: Test B pre/postemergence cocklebur; format: in vivo, Xanthium strumarium
In short: as §1

bedstraw = assay: Test B pre/postemergence bedstraw; format: in vivo, Galium aparine
In short: as §1

giant foxtail = assay: Test B pre/postemergence giant foxtail; format: in vivo, Setaria faberii
In short: as §1

[1] = Postemergence, Rate 31 g/ha, visual rating, scale 0 to 10 (0 no effect, 10 complete control)
[2] = Preemergence, Rate 62 g/ha, scale of 0 to 10 where 0 is no effect and 10 is complete control
[3] = Preemergence, Rate 250 g/ha, scale of 0 to 10 where 0 is no effect and 10 is complete control
[4] = Rate 62 g/ha, Postemergence, scale 0 to 10 (0 no effect, 10 complete control)
[5] = Rate 125 g/ha, Postemergence, scale of 0 to 10 where 0 is no effect and 10 is complete control
[6] = Rate 125 g/ha, Preemergence, scale of 0 to 10 where 0 is no effect and 10 is complete control
[7] = Rate 250 g/ha, Postemergence, scale of 0 to 10 where 0 is no effect and 10 is complete control
[8] = Preemergence, Rate 31 g/ha, visual rating, scale 0 to 10 (0 no effect, 10 complete control)

SMILES: CC(C)N(C(=O)n1oc(=O)n(C(C)C)c1=O)c1cnccn1 [Compound 296]
- Sugarbeets plant response rating (sugar beet; [1]): 0
- Sugarbeets plant response rating (sugar beet; [2]): 0
- Sugarbeets plant response rating (sugar beet; [3]): 0
- Sugarbeets plant response rating (sugar beet; [4]): 0
- Sugarbeets plant response rating (sugar beet; [5]): 0
- Sugarbeets plant response rating (sugar beet; [6]): 0
- Plant response rating, Sugarbeets (sugar beet; [7]): 0
- Wheat plant response rating (wheat; [1]): 0
- Wheat plant response rating (wheat; [2]): 0
- Wheat plant response rating (wheat; [3]): 0
- Wheat plant response rating (wheat; [4]): 0
- Wheat plant response rating (wheat; [5]): 0
- Wheat plant response rating (wheat; [6]): 0
- Plant response rating, Wheat (wheat; [7]): 0
- Corn plant response rating (corn; [1]): 0
- Corn plant response rating (corn; [8]): 0
- Corn plant response rating (corn; [2]): 0
- Corn plant response rating (corn; [3]): 0
- Corn plant response rating (corn; [4]): 0
- Corn plant response rating (corn; [5]): 0
- Corn plant response rating (corn; [6]): 0
- Plant response rating, Corn (corn; [7]): 0
- Morningglory plant response rating (morningglory; [1]): 0
- Morningglory plant response rating (morningglory; [2]): 0
- Morningglory plant response rating (morningglory; [3]): 0
- Morningglory plant response rating (morningglory; [4]): 0
- Morningglory plant response rating (morningglory; [5]): 0
- Morningglory plant response rating (morningglory; [6]): 0
- Plant response rating, Morningglory (morningglory; [7]): 1
- Redroot pigweed plant response rating (pigweed; [1]): 0
- Redroot pigweed plant response rating (pigweed; [2]): 0
- Redroot pigweed plant response rating (pigweed; [3]): 0
- Redroot pigweed plant response rating (pigweed; [4]): 0
- Redroot pigweed plant response rating (pigweed; [5]): 0
- Redroot pigweed plant response rating (pigweed; [6]): 0
- Plant response rating, Redroot pigweed (pigweed; [7]): 0
- Rape plant response rating (rape; [1]): 0
- Rape plant response rating (rape; [2]): 0
- Rape plant response rating (rape; [3]): 0
- Rape plant response rating (rape; [4]): 0
- Rape plant response rating (rape; [5]): 0
- Rape plant response rating (rape; [6]): 0
- Plant response rating, Rape (rape; [7]): 0
- Nutsedge plant response rating (purple nutsedge; [1]): 0
- Nutsedge plant response rating (purple nutsedge; [2]): 0
- Nutsedge plant response rating (purple nutsedge; [4]): 0
- Nutsedge plant response rating (purple nutsedge; [5]): 0
- Nutsedge plant response rating (purple nutsedge; [6]): 0
- Plant response rating, Nutsedge (purple nutsedge; [7]): 0
- Soybean plant response rating (soybean; [1]): 0
- Soybean plant response rating (soybean; [2]): 0
- Soybean plant response rating (soybean; [3]): 0
- Soybean plant response rating (soybean; [4]): 0
- Soybean plant response rating (soybean; [5]): 0
- Soybean plant response rating (soybean; [6]): 0
- Plant response rating, Soybean (soybean; [7]): 1
- Ducksalad plant response rating (duck salad; Rate 31 g/ha, Pre-emergence section (flood test species), scale 0 to 10): 0
- Ducksalad plant response rating (duck salad; Rate 62 g/ha, headed Pre-emergence (flood test species), scale 0 to 10 (0 no effect, 10 complete control)): 0
- Ducksalad plant response rating (duck salad; Rate 125 g/ha, Pre-emergence, flood test species, scale 0 to 10 where 0 is no effect and 10 is complete control): 0
- Ducksalad plant response rating (duck salad; Rate 250 g/ha, Pre-emergence, flood-test species, scale 0 to 10, 0 is no effect, 10 is complete control): 0
- B. signalgrass plant response rating (surinam grass; [1]): 0
- B. signalgrass plant response rating (surinam grass; [8]): 0
- B. signalgrass plant response rating (surinam grass; [2]): 0
- B. signalgrass plant response rating (surinam grass; [3]): 0
- B. signalgrass plant response rating (surinam grass; [4]): 0
- B. signalgrass plant response rating (surinam grass; [5]): 0
- B. signalgrass plant response rating (surinam grass; [6]): 0
- Plant response rating, B. signalgrass (surinam grass; [7]): 0
- Velvetleaf plant response rating (velvetleaf; [1]): 0
- Velvetleaf plant response rating (velvetleaf; [2]): 0
- Velvetleaf plant response rating (velvetleaf; [3]): 0
- Velvetleaf plant response rating (velvetleaf; [4]): 0
- Velvetleaf plant response rating (velvetleaf; [5]): 0
- Velvetleaf plant response rating (velvetleaf; [6]): 0
- Plant response rating, Velvetleaf (velvetleaf; [7]): 0
- Crabgrass plant response rating (crabgrass; [1]): 0
- Crabgrass plant response rating (crabgrass; [8]): 0
- Crabgrass plant response rating (crabgrass; [2]): 0
- Crabgrass plant response rating (crabgrass; [3]): 0
- Crabgrass plant response rating (crabgrass; [4]): 0
- Crabgrass plant response rating (crabgrass; [5]): 0
- Crabgrass plant response rating (crabgrass; [6]): 0
- Plant response rating, Crabgrass (crabgrass; [7]): 0
- Cocklebur plant response rating (cocklebur; [1]): 0
- Cocklebur plant response rating (cocklebur; [8]): 0
- Cocklebur plant response rating (cocklebur; [2]): 0
- Cocklebur plant response rating (cocklebur; [3]): 0
- Cocklebur plant response rating (cocklebur; [4]): 0
- Cocklebur plant response rating (cocklebur; [5]): 0
- Cocklebur plant response rating (cocklebur; [6]): 0
- Plant response rating, Cocklebur (cocklebur; [7]): 0
- Bedstraw plant response rating (bedstraw; [1]): 0
- Bedstraw plant response rating (bedstraw; [8]): 0
- Bedstraw plant response rating (bedstraw; [2]): 0
- Bedstraw plant response rating (bedstraw; [3]): 0
- Bedstraw plant response rating (bedstraw; [4]): 0
- Bedstraw plant response rating (bedstraw; [5]): 0
- Bedstraw plant response rating (bedstraw; [6]): 0
- Plant response rating, Bedstraw (bedstraw; [7]): 0
- Giant foxtail plant response rating (giant foxtail; [1]): 0
- Giant foxtail plant response rating (giant foxtail; [8]): 0
- Giant foxtail plant response rating (giant foxtail; [2]): 0
- Giant foxtail plant response rating (giant foxtail; [3]): 0
- Giant foxtail plant response rating (giant foxtail; [4]): 0
- Giant foxtail plant response rating (giant foxtail; [5]): 0
- Giant foxtail plant response rating (giant foxtail; [6]): 0
- Plant response rating, Giant foxtail (giant foxtail; [7]): 0
